In patent US20240174648A1, “Small Molecule Compound” (Technoderma Medicines Pte Ltd, priority 2019, published 2024):
Blank lines part the entries; values can stand above or below the compound they belong to.

Assays:
Assay type in all cases: biochemical
JAK1 = JAK1 (Homo sapiens, UniProt P23458); test: JAK kinase inhibition assay (EZ Reader, peptide substrate phosphorylation) - JAK1; conditions: JAK1 kinase 20 nM; 8 concentration points, max 10 μM
Outline: (§1)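 Microfluidic mobility-shift detection of fluorescent peptide substrate phosphorylation, with JAK1 at 20 nM and JAK2, JAK3 and Tyk2 each at 1 nM final, in 20 mM HEPES pH 7.4, 10 mM MgCl2, 1 mM DTT. Reactions run at room temperature to 20–30% conversion, then EDTA-stopped. Compounds tested at 8 three-fold dilutions from 10 μM top final; IC50 from conversion curves.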

JAK2 = JAK2 (Homo sapiens, UniProt O60674); test: JAK kinase inhibition assay (EZ Reader, peptide substrate phosphorylation) - JAK2; conditions: JAK2 kinase 1 nM; 8 concentration points, max 10 μM
Excerpt: (§2) Assay for Identifying Inhibitory Effects of Compounds on JAK Kinases
(§3) Janus kinases (JAK), including JAK1, JAK2, JAK3 and Tyk2, transduce a cytokine-mediated signal through a JAK-STAT pathway. The kinases are 120-140 kDa in size and have 7 determined homology regions: JH1 to JH7. JH1 is an important region for enzymatic activity and has typical characteristics of tyrosine kinases. Phosphorylation of tyrosine leads to a change in the conformation of JAK protein, thereby promoting binding of substrate. The JAK-STAT system includes three main parts: receptors penetrating a cell membrane, Janus kinases binding to the receptors, and signal transducers and activators of transcription (STAT) for transmitting signals to a nucleus and DNA. When cytokines bind to receptors, JAK phosphorylates the receptors and attracts STAT proteins. The STAT proteins are also phosphorylated and combined with one another to form dimers. The dimers enter the nucleus and bind to DNA, thereby leading to gene transcription.
(§4) EZ Reader from PerkinElmer can be used to detect the phosphorylation of polypeptide substrates catalyzed by kinases. The device is based on microfluidic techniques, and can directly detect fluorescently labeled substrates and products. The separation step is achieved by controlling the pressure and electric field strength in the microfluidic chip. In kinase assays, a product conversion ratio is usually controlled to be 20-30%. A biological test is used to identify inhibitory effects of compounds on JAKs.
(§5) Compound powder was dissolved in DMSO, sealed and stored in a freezer under −20° C. The in-house compound Ref1 was used as a positive control for JAK1, JAK2 and Tyk2 tests, and Ref2 was used as a positive control for JAK3 tests.
(§6) S2.8. Assay buffer: 20 mM HEPES buffer, pH 7.4, 10 mM magnesium chloride, 0.01% bovine serum albumin BSA, 0.0005% Tween-20 and 1 mM dithiothreitol solution.
(§7) S2.9. Stop buffer: 180 mM HEPES buffer, 20 mM ethylenediaminetetraacetic acid and 0.2% coating reagent 3.
(§8) S2.10. Separation buffer: 100 mM HEPES buffer, 10 mM ethylenediaminetetraacetic acid, 0.0005% Tween 20, 0.1% coating reagent 3 and 1% dimethyl sulfoxide.
The compound was dissolved in dimethyl sulfoxide and diluted to 10 mM concentration, a certain volume of solution was taken and diluted to 0.6 mM concentration, 10 μL of the 0.6 mM dilution was added to a 384-well microplate, and then was diluted 3-fold with a total of 8 concentration points.
Positive control (HPE1): Ref1, final concentration: 10 μM […]
(§9) Negative control (ZPE): DMSO, final content: 1.6%
(§10) Compounds: maximum final concentration: 10 μM; 3-fold dilution, 8 concentration points and 2 duplicates.
(§11) S4.1. 250 nL of the compound was added to each well of the assay microplate by using ECHO, and centrifuged at 1000 rpm for 1 minute.
(§12) S4.2. 5 μL of the assay buffer was added and agitated for a few seconds to fully dissolve the compound.
(§13) S4.3. 5 μL of 3× substrate solution and 5 μL of 3× kinase solution were added and centrifuged at 800 rpm for 1 minute.
(§14) S4.4. Final concentrations of JAK1, JAK2, JAK3 and Tyk2 kinases in the reaction system were 20 nM, 1 nM, 1 nM and 1 nM respectively.
(§15) S4.5. Incubation at room temperature, where kinases had time differences, and different batches of kinases had time differences.
(§16) S4.6. When 20%-30% of the reaction completed, 15 μL of stop buffer was added to stop the reaction, and centrifuged at 1000 rpm for 2 minutes.
(§17) S4.7. The microplates were placed on EZ Reader for reading.
(§18) S4.8. Readings on EZ Reader were calculated by using a peak height, where product conversion ratio (%)=product/(product+substrate)*100.
(§19) 5. Data Processing: IC50 calculation
(§20) A graphing software Xlfit was used to form a concentration curve of the test compound, and an IC50 value was calculated.
(§21) “A” means “≥10 μM”; “B” means “≥1 μM and <10 μM”; “C” means “≥0.1 μM and <1 μM”; and “D” means “<0.1 μM”.

JAK3 = biological target: T1, JAK3 (Homo sapiens, UniProt P52333); test: JAK kinase inhibition assay (EZ Reader, peptide substrate phosphorylation) - JAK3; conditions: JAK3 kinase 1 nM; 8 concentration points, max 10 μM
T1 sequence (P52333 1-1124): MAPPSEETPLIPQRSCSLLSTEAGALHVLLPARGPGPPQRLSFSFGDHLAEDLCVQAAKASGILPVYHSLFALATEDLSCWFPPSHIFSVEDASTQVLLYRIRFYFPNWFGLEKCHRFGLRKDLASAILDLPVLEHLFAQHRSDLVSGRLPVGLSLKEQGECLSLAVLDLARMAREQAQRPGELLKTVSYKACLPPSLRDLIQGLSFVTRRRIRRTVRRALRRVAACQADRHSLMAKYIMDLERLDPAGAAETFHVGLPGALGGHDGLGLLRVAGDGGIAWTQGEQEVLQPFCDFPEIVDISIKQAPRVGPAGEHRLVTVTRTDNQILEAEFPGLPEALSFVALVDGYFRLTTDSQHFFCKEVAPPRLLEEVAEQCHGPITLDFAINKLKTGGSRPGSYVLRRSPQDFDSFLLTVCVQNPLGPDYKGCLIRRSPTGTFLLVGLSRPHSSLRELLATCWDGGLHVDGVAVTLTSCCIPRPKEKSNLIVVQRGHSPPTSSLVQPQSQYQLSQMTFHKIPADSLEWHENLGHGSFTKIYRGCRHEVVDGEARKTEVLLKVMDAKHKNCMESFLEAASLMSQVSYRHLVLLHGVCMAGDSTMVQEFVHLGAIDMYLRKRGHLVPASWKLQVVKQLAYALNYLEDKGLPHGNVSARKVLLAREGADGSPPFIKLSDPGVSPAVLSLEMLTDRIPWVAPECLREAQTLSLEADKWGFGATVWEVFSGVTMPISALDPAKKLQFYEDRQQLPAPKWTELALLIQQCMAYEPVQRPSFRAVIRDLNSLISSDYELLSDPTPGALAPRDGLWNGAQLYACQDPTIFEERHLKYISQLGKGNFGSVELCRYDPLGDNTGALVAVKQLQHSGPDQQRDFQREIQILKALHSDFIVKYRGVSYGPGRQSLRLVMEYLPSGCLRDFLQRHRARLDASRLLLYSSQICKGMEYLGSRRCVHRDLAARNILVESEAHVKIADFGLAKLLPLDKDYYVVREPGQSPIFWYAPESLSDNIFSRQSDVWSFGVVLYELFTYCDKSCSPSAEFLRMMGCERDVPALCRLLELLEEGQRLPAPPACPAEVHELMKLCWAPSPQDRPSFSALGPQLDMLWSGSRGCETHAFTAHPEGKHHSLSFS
Excerpt: as §2, §3, §4, §5, §6, §7, §8
The compound was dissolved in dimethyl sulfoxide and diluted to 10 mM concentration, a certain volume of solution was taken and diluted to 0.6 mM concentration, 10 μL of the 0.6 mM dilution was added to a 384-well microplate, and then was diluted 3-fold with a total of 8 concentration points. […]
Positive control (HPE1): Ref2, final concentration: 10 μM
as §9, §10, §11, §12, §13, §14, §15, §16, §17, §18, §19, §20, §21

Tyk2 = Tyk2 (Homo sapiens, UniProt P29597); test: JAK kinase inhibition assay (EZ Reader, peptide substrate phosphorylation) - Tyk2; conditions: Tyk2 kinase 1 nM; 8 concentration points, max 10 μM
Outline: as §1

Chain of Tyk2 (P29597 whole entry): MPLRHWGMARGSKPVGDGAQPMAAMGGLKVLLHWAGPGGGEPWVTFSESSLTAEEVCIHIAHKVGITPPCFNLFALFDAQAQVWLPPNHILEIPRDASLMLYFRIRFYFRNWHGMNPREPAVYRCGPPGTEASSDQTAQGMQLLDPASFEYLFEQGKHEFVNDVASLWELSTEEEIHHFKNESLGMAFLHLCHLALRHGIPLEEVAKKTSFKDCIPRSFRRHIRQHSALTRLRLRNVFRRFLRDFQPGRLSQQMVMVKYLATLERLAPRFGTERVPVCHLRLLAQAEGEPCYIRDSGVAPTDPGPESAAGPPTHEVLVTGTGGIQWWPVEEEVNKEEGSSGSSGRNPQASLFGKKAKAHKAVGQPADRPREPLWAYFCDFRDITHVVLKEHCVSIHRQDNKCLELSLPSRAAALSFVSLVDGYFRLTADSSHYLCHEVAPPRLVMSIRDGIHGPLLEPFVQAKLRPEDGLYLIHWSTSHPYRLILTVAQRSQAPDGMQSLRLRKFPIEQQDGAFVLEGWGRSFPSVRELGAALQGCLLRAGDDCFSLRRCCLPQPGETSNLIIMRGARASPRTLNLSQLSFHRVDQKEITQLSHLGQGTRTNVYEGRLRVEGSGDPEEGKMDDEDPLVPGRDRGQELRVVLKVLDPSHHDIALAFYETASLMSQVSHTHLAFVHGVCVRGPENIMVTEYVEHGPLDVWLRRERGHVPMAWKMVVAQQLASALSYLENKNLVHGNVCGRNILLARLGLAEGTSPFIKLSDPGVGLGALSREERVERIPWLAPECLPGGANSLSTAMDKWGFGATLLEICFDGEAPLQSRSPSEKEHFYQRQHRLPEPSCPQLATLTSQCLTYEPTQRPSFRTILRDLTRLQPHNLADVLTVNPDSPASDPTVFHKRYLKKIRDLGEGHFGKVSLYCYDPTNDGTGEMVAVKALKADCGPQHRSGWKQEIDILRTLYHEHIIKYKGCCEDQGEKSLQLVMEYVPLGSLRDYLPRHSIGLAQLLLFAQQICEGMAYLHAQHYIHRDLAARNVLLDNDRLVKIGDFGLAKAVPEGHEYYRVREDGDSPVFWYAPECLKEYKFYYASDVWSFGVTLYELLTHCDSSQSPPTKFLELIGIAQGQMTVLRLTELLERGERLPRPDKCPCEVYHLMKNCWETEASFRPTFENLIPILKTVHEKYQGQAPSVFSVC
Chain of JAK2 (O60674 whole entry): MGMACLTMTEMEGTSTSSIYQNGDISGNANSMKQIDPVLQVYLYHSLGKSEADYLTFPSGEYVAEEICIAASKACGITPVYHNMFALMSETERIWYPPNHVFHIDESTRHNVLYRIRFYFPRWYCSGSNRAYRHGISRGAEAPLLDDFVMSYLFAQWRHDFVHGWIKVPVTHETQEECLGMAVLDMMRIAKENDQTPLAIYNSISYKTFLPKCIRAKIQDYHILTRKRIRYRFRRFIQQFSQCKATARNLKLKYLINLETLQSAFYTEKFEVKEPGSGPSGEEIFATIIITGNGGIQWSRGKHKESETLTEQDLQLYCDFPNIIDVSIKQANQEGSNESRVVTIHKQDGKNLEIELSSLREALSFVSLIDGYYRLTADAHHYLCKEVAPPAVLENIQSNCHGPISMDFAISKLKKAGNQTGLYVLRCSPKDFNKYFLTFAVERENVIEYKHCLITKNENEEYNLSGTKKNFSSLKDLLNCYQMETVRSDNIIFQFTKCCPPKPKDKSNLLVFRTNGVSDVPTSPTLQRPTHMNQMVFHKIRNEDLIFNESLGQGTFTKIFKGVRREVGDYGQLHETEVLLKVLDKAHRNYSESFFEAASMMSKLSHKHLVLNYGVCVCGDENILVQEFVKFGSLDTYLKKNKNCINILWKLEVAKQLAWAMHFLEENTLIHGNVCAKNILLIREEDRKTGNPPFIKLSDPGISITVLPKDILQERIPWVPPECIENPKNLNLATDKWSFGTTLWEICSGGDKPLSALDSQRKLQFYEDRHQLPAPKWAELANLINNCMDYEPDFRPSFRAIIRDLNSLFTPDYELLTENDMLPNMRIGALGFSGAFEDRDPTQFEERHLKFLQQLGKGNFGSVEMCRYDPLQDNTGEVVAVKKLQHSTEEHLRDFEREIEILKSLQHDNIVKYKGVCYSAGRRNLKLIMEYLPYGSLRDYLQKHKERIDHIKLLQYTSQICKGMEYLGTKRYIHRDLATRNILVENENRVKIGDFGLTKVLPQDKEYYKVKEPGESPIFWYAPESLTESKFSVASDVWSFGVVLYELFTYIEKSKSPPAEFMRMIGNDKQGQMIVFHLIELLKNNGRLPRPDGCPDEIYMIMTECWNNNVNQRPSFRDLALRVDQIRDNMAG
Chain of JAK1 (P23458 whole entry): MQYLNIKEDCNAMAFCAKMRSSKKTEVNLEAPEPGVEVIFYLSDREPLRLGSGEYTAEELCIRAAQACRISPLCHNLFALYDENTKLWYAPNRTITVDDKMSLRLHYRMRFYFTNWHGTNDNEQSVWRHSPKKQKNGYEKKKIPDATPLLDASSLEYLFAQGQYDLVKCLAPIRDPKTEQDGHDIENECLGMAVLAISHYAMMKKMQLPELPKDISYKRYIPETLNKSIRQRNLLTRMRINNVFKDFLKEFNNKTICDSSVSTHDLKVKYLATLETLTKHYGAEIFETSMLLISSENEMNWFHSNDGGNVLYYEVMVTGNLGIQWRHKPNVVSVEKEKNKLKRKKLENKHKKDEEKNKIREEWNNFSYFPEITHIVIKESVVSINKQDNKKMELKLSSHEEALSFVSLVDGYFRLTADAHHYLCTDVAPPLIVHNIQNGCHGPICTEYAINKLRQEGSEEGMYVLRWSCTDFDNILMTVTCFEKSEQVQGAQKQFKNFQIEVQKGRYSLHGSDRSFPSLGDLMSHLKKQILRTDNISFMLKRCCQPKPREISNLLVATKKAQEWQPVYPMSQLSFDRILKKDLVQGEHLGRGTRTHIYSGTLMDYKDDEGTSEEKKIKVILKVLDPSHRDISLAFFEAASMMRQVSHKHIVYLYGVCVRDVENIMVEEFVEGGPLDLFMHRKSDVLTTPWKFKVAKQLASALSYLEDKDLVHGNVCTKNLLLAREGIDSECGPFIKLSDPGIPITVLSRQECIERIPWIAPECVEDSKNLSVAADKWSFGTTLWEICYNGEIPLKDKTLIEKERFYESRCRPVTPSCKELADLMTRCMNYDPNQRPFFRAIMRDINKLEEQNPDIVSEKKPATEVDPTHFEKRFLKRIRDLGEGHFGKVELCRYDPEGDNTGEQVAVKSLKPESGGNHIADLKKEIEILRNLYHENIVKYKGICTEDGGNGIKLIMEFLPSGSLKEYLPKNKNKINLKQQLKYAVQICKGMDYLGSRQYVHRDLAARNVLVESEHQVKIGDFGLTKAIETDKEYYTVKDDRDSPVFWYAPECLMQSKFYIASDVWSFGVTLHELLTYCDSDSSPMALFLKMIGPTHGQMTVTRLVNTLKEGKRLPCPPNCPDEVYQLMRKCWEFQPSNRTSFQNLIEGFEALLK

SMILES: Cn1cc(Nc2nccc(-c3ccc(NC(=O)C4CCC4)nc3)n2)cn1 [TDM-180823, N-(5-(2-((1-methyl-1H-pyrazol-4-yl)amino)pyrimidin-4-yl)pyridin-2-yl)cyclobutanemethyl]
IC50 (JAK1): 0.1 to 1 µM | IC50 (JAK2): 1 to 10 µM | IC50 (JAK3): 1 to 10 µM | IC50 (Tyk2): 1 to 10 µM

SMILES: Cn1cc(Nc2nccc(-c3ccc(NC(=O)CC(F)(F)F)nc3)n2)cn1 [TDM-180830, 3,3,3-trifluoro-N-(5-(2-((1-methyl-1H-pyrazol-4-yl)amino)pyrimidin-4-yl)pyridin-2-yl)propanamide]
IC50 (JAK1): < 0.1 µM | IC50 (JAK2): 0.1 to 1 µM | IC50 (JAK3): 0.1 to 1 µM | IC50 (Tyk2): 0.1 to 1 µM

SMILES: CCOCCS(=O)(=O)Nc1ccc(-c2ccnc(Nc3cnn(C)c3)n2)cc1 [TDM-180834, 2-ethoxyl-N-(4-(2-((1-methyl-1H-pyrazol-4-yl)amino)pyrimidin-4-yl)phenyl)ethyl-1-sulfonamide]
IC50 (JAK1): < 0.1 µM | IC50 (JAK2): < 0.1 µM | IC50 (JAK3): 1 to 10 µM | IC50 (Tyk2): 0.1 to 1 µM

SMILES: C=CCS(=O)(=O)Nc1ccc(-c2ccnc(Nc3cnn(C)c3)n2)cc1 [TDM-180844, N-(4-(2-((1-methyl-1H-pyrazol-4-yl)amino)pyrimidin-4-yl)phenyl)prop-2-ene-1-sulfonamide]
IC50 (JAK1): 0.1 to 1 µM | IC50 (JAK2): 0.1 to 1 µM | IC50 (JAK3): 1 to 10 µM | IC50 (Tyk2): 0.1 to 1 µM

SMILES: Cn1cc(Nc2nccc(-c3ccc(NC(=O)C(F)F)nc3)n2)cn1 [TDM-180849, 2,2-difluoro-N-(5-(2-((1-methyl-1H-pyrazol-4-yl)amino)pyrimidin-4-yl)pyridin-2-yl)acetamide]
IC50 (JAK1): 0.1 to 1 µM | IC50 (JAK2): 0.1 to 1 µM | IC50 (JAK3): 1 to 10 µM | IC50 (Tyk2): 0.1 to 1 µM

The next lines start with the values.

IC50 (JAK1): 1 to 10 µM | IC50 (JAK2): 1 to 10 µM | IC50 (JAK3): ≥ 10 µM | IC50 (Tyk2): 1 to 10 µM
SMILES: CN1CCN(c2ccc(-c3ccnc(Nc4cnn(C)c4)n3)cc2)CC1 [TDM-180828]

IC50 (JAK1): 0.1 to 1 µM | IC50 (JAK2): 0.1 to 1 µM | IC50 (JAK3): 1 to 10 µM | IC50 (Tyk2): 0.1 to 1 µM
SMILES: CCCCS(=O)(=O)Nc1ccc(-c2ccnc(Nc3cnn(C)c3)n2)cc1 [TDM-180832, N-(4-(2-((1-methyl-1H-pyrazol-4-yl)amino)pyrimidin-4-yl)phenyl)butane-1-sulfonamide]

IC50 (JAK1): 0.1 to 1 µM | IC50 (JAK2): 0.1 to 1 µM | IC50 (JAK3): 1 to 10 µM | IC50 (Tyk2): 0.1 to 1 µM
SMILES: Cn1cc(Nc2nccc(-c3ccc(NC(=O)CC#N)nc3)n2)cn1 [TDM-180833, 2-cyano-N-(5-(2-((1-methyl-1H-pyrazol-4-yl)amino)pyrimidin-4-yl)pyridin-2-yl)acetamide]

IC50 (JAK1): 0.1 to 1 µM | IC50 (JAK2): 0.1 to 1 µM | IC50 (JAK3): ≥ 10 µM | IC50 (Tyk2): 0.1 to 1 µM
SMILES: Cn1cc(Nc2nccc(-c3ccc(NS(=O)(=O)CCC(F)(F)F)cc3)n2)cn1 [TDM-180850, 3,3,3-trifluoro-N-(4-(2-((1-methyl-1H-pyrazol-4-yl)amino)pyrimidin-4-yl)phenyl)propyl-1-sulfonamide]
